According to patent publication US20240324590A1, “COMBINATIONS OF TRIAZOLINONE HERBICIDES WITH SAFENERS” (UPL CORPORATION LIMITED, priority 2021, published 2024):

Legend:
Format in all cases: in vivo
[1] = test system: corn crop; assay: % phytotoxicity in corn crop after spraying tank mix; settings: for Phytotoxicity (%) in corn crop: flucarbazone 30 g ai/ha, safener cyprosulfamid 66 / isoxadifen 38 / mefenpyr 30 g ai/ha
Procedure: Treatment: The present invention has employed a tank mix combination of Flucarbazone and Cyprosulfamid as the safener to evaluate its percentage phytotoxicity and its efficacy in the control of weeds.
The tank mix combination of Flucarbazone and Cyprosulfamid as the safener was formulated and the combination was sprayed onto corn crop and the results on the phytotoxicity in corn were determined. These observations relating to % phytotoxicity were made during a time interval of over a month. The duration at which the % phytotoxicity were determined at time intervals as follows: 3 DAA (3 days after application), 5 DAA (5 days after application), 7 DAA (7 days after application), 14 DAA (14 days after application), 21 DAA (21 days after application); 28 DAA (28 days after application); 35 DAA (35 days after application); 42DAA (42 days after application).
• (i) Treatment: The present invention has employed a tank mix of Flucarbazone and Isoxadifen as the safener to evaluate its percentage phytotoxicity in corn crop. • (ii) % Phytotoxicity: This % phytotoxicity was observed by the present inventors to be as high as 48% at 14 DAA in crops treated with Flucarbazone and Isoxadifen.
B) Flucarbazone with Mefenpyr as the Safener • (i) Treatment: The present invention has employed a tank mix combination of Flucarbazone and […] as the safener to evaluate its percentage phytotoxicity in corn crop.

[2] = test system: corn crop; assay: Height of corn plants after treatment, greenhouse; settings: for Crop height (cm) at 14 DAA: safener 90 g ai/ha
Procedure: (§1) The combination of flucarbazone with safeners selected from cyprosulfamid and isoxadifen were evaluated in terms of the increase or decrease in height of the treated corn crop (cm) and % phytotoxicity. The experimental evaluations were conducted under greenhouse conditions with 4 repetitions, using a spray volume of […]. The different corn varieties tested were SYN8A98 TLTG and XB 8010.
The observations for determining corn height were made at 14 DAA (days after application) of the herbicide. The treatment employed and the corresponding observations are detailed in the table 8 (i) & (ii) below: […]

[3] = test system: redroot pigweed; assay: % efficacy of weed control against redroot pigweed in corn crop; settings: for % Efficacy for control of weeds: redroot pigweed in corn crop, flucarbazone 30 g ai/ha, cyprosulfamid 66 g ai/ha
Procedure: The tank mix combination of Flucarbazone and Cyprosulfamid as the safener was formulated and the combination was sprayed onto corn crop and the results on the efficacy in weed control were determined.

[4] = test system: corn crop; assay: % phytotoxicity on corn varieties, greenhouse; settings: flucarbazone 45 g ai/ha alone
Procedure: as §1
The observations for determining corn height were made at 7 DAA (days after application), 14 DAA and 21 DAA, of the herbicide. The treatment employed and the corresponding observations are detailed in the table 9 (i) & (ii) below: […]

COc1nn(C(=O)NS(=O)(=O)c2ccccc2OC(F)(F)F)c(=O)n1C [flucarbazone, Flucarbazone]
Phytotoxicity (%) in corn crop ([1]; 3DAA & 5DAA, sub-column 1 of 3 (unlabelled)): 0%
Phytotoxicity (%) in corn crop ([1]; 3DAA & 5DAA, sub-column 3 of 3 (unlabelled)): 0%
Phytotoxicity (%) in corn crop ([1]; 3DAA & 5DAA): 0%
Phytotoxicity (%) in corn crop ([1]; 7DAA, sub-column 1 of 3 (unlabelled)): 28.8%
Phytotoxicity (%) in corn crop ([1]; 7DAA, sub-column 3 of 3 (unlabelled)): 28.8%
Phytotoxicity (%) in corn crop ([1]; 7DAA): 28.8%
Phytotoxicity (%) in corn crop ([1]; 14 DAA, sub-column 1 of 3 (unlabelled)): 51.3%
Phytotoxicity (%) in corn crop ([1]; 14 DAA, sub-column 3 of 3 (unlabelled)): 50%
Phytotoxicity (%) in corn crop ([1]; 14 DAA): 53.8%
Phytotoxicity (%) in corn crop ([1]; 21DAA, sub-column 1 of 3 (unlabelled)): 50%
Phytotoxicity (%) in corn crop ([1]; 21DAA, sub-column 3 of 3 (unlabelled)): 46.3%
Phytotoxicity (%) in corn crop ([1]; 21DAA): 51.3%
Phytotoxicity (%) in corn crop ([1]; 28DAA, sub-column 1 of 3 (unlabelled)): 47.5%
Phytotoxicity (%) in corn crop ([1]; 28DAA, sub-column 3 of 3 (unlabelled)): 39.8%
Phytotoxicity (%) in corn crop ([1]; 28DAA): 56.3%
Phytotoxicity (%) in corn crop ([1]; 35DAA, sub-column 1 of 3 (unlabelled)): 44.9%
Phytotoxicity (%) in corn crop ([1]; 35DAA, sub-column 3 of 3 (unlabelled)): 39.9%
Phytotoxicity (%) in corn crop ([1]; 35DAA): 53.8%
Phytotoxicity (%) in corn crop ([1]; 42DAA, sub-column 1 of 3 (unlabelled)): 42.4%
Phytotoxicity (%) in corn crop ([1]; 42DAA, sub-column 3 of 3 (unlabelled)): 38.7%
Phytotoxicity (%) in corn crop ([1]; 42DAA): 48.7%
% phytotoxicity levels in corn crop ([1]; at 14 DAA, highest level stated in text): up to 50%
% phytotoxicity in corn crop ([1]; over a period of one month after application): significant damage
Height of the corn plants ([2]; 14 DAA, compared with untreated corn): reduction in height
Crop height (cm) at 14 DAA ([2]; corn variety SYN8A98 TLTG, flucarbazone 30 g ai/ha): 14 cm
Crop height (cm) at 14 DAA ([2]; corn variety XB 8010, flucarbazone 30 g ai/ha): 11 cm
% Efficacy for control of weeds ([3]; 7 DAA): 22.5%
% Efficacy for control of weeds ([3]; 14 DAA): 42.5%
% Efficacy for control of weeds ([3]; 21 DAA): 45%
% Efficacy for control of weeds ([3]; 28 DAA): 48.8%
% Efficacy for control of weeds ([3]; 35 DAA): 48.8%
% Efficacy for control of weeds ([3]; 42 DAA): 48.8%
% efficacy control of redroot pigweed ([3]; over a duration of one month, corn crop): reduced % efficacy
% phytotoxocity of corn crop variety P4285VYHR ([4]; 7DAA): 26 ab %
% phytotoxocity of corn crop variety SYN8A98 TLTG ([4]; 7DAA): 19 cd %
% phytotoxocity of corn crop variety XB 8010 ([4]; 7DAA): 28 a %
% phytotoxocity of corn crop variety P4285VYHR ([4]; 14 DAA): 34 b %
% phytotoxocity of corn crop variety SYN8A98 TLTG ([4]; 14 DAA): 47 ab %
% phytotoxocity of corn crop variety XB 8010 ([4]; 14 DAA): 52 ab %
% phytotoxocity of corn crop variety P4285VYHR ([4]; 21 DAA): 32 b %
% phytotoxocity of corn crop variety SYN8A98 TLTG ([4]; 21 DAA): 48 bc %
% phytotoxocity of corn crop variety XB 8010 ([4]; 21 DAA): 51 ab %
